Positions count from the first letter of the chain named.

The target in experiment [1] is T1, Muscarinic acetylcholine receptor M5 (Homo sapiens) (UniProt P08912).
T1 sequence (whole entry): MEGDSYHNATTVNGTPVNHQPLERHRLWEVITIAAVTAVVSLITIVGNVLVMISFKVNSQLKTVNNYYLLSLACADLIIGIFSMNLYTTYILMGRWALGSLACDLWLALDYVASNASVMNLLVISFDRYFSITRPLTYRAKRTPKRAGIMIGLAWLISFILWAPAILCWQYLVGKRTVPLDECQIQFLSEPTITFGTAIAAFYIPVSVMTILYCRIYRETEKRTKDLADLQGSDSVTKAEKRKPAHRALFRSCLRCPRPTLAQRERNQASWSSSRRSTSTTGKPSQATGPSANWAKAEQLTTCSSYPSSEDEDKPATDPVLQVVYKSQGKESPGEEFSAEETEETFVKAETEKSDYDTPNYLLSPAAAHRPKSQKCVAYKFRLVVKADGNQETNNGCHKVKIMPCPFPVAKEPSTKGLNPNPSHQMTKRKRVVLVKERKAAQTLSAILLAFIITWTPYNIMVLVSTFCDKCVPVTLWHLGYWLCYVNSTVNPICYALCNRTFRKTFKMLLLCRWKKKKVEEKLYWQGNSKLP
The experiment can be described thus: Positive allosteric modulation of human muscarinic M5 receptor relative to acetylcholine.

For experiment [2], the target named is T2, Muscarinic acetylcholine receptor M5 (Homo sapiens, UniProt P08912).
T2 sequence (P08912 whole entry): T1 sequence (whole entry)
The experiment in a line: Positive allosteric modulation of human muscarinic M5 receptor.

Experiment [3] has as its target Muscarinic acetylcholine receptor M3 (Homo sapiens, UniProt P20309). The experiment in a line: Positive allosteric modulation of human muscarinic M3 receptor.
The target in experiment [4] is T3, Muscarinic acetylcholine receptor M4 (Homo sapiens, UniProt P08173).
T3 sequence (P08173 whole entry): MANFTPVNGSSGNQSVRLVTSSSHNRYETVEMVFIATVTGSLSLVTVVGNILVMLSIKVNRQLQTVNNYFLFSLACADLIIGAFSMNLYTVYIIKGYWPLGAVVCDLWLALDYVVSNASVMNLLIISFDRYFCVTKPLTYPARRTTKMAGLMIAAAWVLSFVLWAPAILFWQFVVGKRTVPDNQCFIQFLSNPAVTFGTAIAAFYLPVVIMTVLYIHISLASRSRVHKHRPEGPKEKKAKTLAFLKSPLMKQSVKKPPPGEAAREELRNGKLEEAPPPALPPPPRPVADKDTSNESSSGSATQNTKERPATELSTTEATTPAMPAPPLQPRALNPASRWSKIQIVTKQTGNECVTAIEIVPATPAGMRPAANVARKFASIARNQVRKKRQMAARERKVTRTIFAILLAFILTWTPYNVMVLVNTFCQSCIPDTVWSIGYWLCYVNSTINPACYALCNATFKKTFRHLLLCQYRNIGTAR
The experiment in a line: Positive allosteric modulation of human muscarinic M4 receptor.

Experiment [5] has as its target T4, Muscarinic acetylcholine receptor M2 (Homo sapiens, UniProt P08172).
T4 sequence (P08172 whole entry): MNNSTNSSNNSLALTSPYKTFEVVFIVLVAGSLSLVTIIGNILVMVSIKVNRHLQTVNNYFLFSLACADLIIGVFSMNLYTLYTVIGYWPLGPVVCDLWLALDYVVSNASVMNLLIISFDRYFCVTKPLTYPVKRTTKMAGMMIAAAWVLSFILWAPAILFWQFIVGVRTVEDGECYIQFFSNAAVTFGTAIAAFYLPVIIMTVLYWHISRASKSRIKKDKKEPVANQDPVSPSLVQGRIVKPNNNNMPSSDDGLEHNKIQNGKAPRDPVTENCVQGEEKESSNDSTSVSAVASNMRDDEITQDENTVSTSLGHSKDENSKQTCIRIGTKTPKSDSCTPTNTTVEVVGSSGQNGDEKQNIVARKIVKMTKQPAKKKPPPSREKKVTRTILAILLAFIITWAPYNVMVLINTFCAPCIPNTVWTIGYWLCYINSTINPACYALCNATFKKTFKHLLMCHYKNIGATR
The experiment in a line: Positive allosteric modulation of human muscarinic M2 receptor.

In experiment [6] the target is T5, Muscarinic acetylcholine receptor M1 (Homo sapiens, UniProt P11229).
T5 sequence (P11229 whole entry): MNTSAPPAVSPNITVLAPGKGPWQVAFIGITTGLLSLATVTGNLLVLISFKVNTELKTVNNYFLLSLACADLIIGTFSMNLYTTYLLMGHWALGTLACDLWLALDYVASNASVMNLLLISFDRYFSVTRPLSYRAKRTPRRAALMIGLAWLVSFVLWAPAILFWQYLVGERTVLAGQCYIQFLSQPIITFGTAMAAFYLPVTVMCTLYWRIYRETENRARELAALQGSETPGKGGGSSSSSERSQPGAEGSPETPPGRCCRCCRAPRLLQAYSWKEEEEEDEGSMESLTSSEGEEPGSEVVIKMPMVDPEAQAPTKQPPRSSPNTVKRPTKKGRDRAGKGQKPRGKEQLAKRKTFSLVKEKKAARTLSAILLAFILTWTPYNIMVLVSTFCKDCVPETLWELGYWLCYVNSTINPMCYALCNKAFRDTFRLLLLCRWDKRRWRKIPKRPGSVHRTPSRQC
The experiment in a line: Positive allosteric modulation of human muscarinic M1 receptor.

Experiment [7] deals with T1, Muscarinic acetylcholine receptor M5 (Homo sapiens). The experiment in a line: Positive allosteric modulation of human muscarinic M5 receptor assessed as fold shift of acetylcholine-induced response at 30 uM.
Experiment [8] addresses Muscarinic acetylcholine receptor M3 (Rattus norvegicus, UniProt P08483). The experiment can be described thus: Positive allosteric modulation of rat muscarinic M3 receptor.
Experiment [9] concerns the target T6, Muscarinic acetylcholine receptor M4 (Rattus norvegicus, UniProt P08485).
T6 sequence (P08485 whole entry): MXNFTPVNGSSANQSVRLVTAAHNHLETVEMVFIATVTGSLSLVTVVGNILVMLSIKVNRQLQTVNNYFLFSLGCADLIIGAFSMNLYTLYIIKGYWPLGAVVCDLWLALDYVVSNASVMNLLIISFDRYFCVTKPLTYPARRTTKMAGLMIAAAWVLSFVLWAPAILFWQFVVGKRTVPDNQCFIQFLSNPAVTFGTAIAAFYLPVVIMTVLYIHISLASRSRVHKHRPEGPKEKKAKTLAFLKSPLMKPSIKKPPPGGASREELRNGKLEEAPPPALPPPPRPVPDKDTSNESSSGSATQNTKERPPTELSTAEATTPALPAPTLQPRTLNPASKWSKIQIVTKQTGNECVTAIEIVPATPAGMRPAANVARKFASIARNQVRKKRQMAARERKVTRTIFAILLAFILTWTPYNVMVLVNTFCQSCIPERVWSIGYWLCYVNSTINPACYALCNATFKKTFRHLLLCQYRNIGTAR
The experiment can be described thus: Positive allosteric modulation of rat muscarinic M4 receptor.

Experiment [10] has as its target T7, Muscarinic acetylcholine receptor M2 (Rattus norvegicus, UniProt P10980).
T7 sequence (P10980 whole entry): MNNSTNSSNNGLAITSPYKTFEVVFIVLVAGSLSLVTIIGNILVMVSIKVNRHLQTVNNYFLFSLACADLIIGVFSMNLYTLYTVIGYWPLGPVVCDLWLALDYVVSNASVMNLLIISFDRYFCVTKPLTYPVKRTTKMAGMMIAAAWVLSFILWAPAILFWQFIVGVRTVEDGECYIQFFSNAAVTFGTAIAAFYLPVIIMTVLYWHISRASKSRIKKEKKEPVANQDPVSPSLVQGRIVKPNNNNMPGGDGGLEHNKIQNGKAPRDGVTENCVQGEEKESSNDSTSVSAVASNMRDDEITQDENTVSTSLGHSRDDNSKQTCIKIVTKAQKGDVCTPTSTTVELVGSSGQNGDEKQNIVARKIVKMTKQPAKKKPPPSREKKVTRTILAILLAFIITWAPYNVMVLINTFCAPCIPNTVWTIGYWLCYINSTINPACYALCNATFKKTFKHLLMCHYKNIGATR
The experiment can be described thus: Positive allosteric modulation of rat muscarinic M2 receptor.

For experiment [11], the target named is T8, Muscarinic acetylcholine receptor M1 (Rattus norvegicus, UniProt P08482).
T8 sequence (P08482 whole entry): T5 sequence (P11229 whole entry) with A5V, T254S, P309S, R320K, A337G, I413V
The experiment in a line: Positive allosteric modulation of rat muscarinic M1 receptor.

The target in experiment [12] is T9, Muscarinic acetylcholine receptor M5 (Rattus norvegicus) (UniProt P08911).
T9 sequence (whole entry): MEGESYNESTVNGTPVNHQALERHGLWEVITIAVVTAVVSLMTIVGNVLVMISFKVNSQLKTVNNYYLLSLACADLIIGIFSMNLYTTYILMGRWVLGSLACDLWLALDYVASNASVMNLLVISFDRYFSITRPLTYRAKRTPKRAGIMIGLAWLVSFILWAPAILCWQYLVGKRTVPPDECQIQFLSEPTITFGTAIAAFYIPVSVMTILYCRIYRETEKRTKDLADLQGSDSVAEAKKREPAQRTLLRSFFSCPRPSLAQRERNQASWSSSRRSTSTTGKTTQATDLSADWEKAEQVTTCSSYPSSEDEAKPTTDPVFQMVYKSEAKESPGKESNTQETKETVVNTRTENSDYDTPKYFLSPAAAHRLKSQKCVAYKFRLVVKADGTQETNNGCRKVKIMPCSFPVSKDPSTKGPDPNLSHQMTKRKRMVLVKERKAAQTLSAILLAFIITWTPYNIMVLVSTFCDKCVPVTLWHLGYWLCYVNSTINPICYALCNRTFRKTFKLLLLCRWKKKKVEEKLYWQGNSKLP
The experiment in a line: Positive allosteric modulation of rat muscarinic M5 receptor relative to acetylcholine.

Experiment [13] has as its target T1, Muscarinic acetylcholine receptor M5 (Homo sapiens). The experiment in a line: Positive allosteric modulation of human muscarinic M5 receptor at 3 uM relative to acetylcholine.

Muscarinic acetylcholine receptor M3 (Homo sapiens, UniProt P20309), sequence (P20309 whole entry): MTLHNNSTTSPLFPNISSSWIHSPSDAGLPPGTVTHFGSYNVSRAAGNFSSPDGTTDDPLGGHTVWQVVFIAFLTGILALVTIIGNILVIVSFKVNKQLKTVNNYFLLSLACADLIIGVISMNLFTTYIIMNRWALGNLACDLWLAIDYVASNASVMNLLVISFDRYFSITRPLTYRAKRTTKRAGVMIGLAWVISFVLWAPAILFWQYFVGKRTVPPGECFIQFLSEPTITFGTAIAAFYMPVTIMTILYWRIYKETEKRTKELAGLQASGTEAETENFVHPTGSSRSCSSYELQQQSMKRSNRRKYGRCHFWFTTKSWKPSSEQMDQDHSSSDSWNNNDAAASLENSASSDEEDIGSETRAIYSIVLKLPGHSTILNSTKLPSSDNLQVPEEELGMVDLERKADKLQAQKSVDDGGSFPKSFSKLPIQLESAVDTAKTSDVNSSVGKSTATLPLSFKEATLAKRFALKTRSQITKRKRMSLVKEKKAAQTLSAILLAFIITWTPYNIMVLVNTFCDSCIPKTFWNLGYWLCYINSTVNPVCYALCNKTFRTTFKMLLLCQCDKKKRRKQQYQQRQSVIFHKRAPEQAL
Muscarinic acetylcholine receptor M3 (Rattus norvegicus, UniProt P08483), sequence (P08483 whole entry): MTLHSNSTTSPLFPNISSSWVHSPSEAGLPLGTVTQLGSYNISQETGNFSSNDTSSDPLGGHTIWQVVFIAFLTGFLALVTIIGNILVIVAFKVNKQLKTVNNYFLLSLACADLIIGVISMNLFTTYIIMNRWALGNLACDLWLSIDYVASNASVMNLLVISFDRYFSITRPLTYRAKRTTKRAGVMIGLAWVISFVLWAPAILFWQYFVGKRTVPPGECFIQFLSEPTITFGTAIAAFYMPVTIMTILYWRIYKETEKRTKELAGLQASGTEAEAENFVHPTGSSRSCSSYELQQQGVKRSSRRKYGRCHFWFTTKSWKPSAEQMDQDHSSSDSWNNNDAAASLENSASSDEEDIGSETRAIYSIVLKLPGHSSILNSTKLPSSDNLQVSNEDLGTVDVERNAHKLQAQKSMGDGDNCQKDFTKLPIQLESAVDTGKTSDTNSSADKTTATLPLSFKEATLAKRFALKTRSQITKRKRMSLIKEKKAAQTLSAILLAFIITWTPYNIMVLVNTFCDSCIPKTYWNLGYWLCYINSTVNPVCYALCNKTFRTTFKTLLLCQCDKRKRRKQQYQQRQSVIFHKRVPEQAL

`COc1ccc(OCCN2C(=O)C(=O)c3cc(OC(F)(F)F)ccc32)cc1` came in with a maximal effect (Emax) in [1] of 89%. The response in experiment [2] was half-maximal at 0.59 µM (EC50).
For `COc1ccc(CN2C(=O)C(O)(c3ccc(F)nc3)c3cc(OC(F)(F)F)ccc32)cc1` (stereo not given) the same measures were 74% and 2.2 µM.
Turning to `O=C1C(=O)N(Cc2ccc(Oc3ccccc3)cc2)c2ccc(OC(F)(F)F)cc21`, the EC50 in experiment [3], in [4], in [5] and in experiment [6] was greater than 30 µM in each case. In addition, the fold change (FC) in experiment [7] amounted to 5.
Take `O=C1C(=O)N(CCOc2ccccc2)c2ccc(OC(F)(F)F)cc21`: the concentration for a half-maximal effect (EC50) in [8], in experiment [9], in experiment [10], in [11], in experiment [3] and in experiment [4] was greater than 30 µM each time. Further, the 50% effective concentration (EC50) in [5] was greater than 30 µM; in experiment [6] it was greater than 30 µM; in experiment [2], 0.41 µM. In addition, the fold change (FC) in experiment [12] and in [7] was 20 in each case. The Emax in experiment [1] turned out to be 91%.
As to `Cc1cccc2c1N(CCOc1ccccc1)C(=O)C2=O`, the Emax in [13] was 31%.
In [1], `O=C1C(=O)N(CCOc2ccc(Cl)cc2)c2ccc(OC(F)(F)F)cc21` returned an Emax of 92%. It took 0.45 µM to reach a half-maximal effect in experiment [2] (EC50).
For `O=C1C(=O)N(CCOc2ccc(Oc3ccccc3)cc2)c2ccc(OC(F)(F)F)cc21` the same measures were 93% and 1.05 µM.
In the case of `Cn1cc(-c2ccc(CN3C(=O)C(=O)c4ccccc43)c(F)c2)cn1`, the concentration giving a half-maximal response (EC50) in [3], in [4] and in [5] was greater than 30 µM in each case. Further, the Emax in [1] is 45%.
As for `Cc1cccc(OCCN2C(=O)C(=O)c3cc(OC(F)(F)F)ccc32)c1`, the maximal effect (Emax) in [1] came out at 91%. This compound registered an EC50 in experiment [2] of 0.53 µM.
In the case of `O=C1C(=O)N(Cc2ccc(Oc3cccc(F)n3)cc2)c2ccc(OC(F)(F)F)cc21`, the EC50 in experiment [3], in [4], in [5] and in [6] was greater than 30 µM throughout. Moreover, the fold change (FC) in [7] was determined as 6.
On to `COc1ccc(CN2C(=O)C(=O)c3cc(OC(F)(F)F)ccc32)cc1`, for which the fold change (FC) was determined as 20 in [12] and 14 in [7]. Further, the concentration for a half-maximal effect (EC50) in experiment [3], in experiment [4], in experiment [5] and in [6] was greater than 30 µM throughout.
`COc1ccc(CN2C(=O)C(O)(C[N+](=O)[O-])c3cc(OC(F)(F)F)ccc32)cc1` (stereo not given): the Emax in experiment [1] stood at 75%. Besides, in [2], the EC50 stood at 1.4 µM.

As a reminder, the Emax is the size of the effect at its maximum, as opposed to the concentration needed. What is called EC50 is the midpoint of the concentration-response curve.

(Values after ChEMBL document CHEMBL2380197, “Discovery of ML326: The first sub-micromolar, selective M5 PAM” (Bioorg Med Chem Lett, 2013).)
